What was measured:
[1] = pH of a 1% solution; type: physicochemical
Method: A mixture of amphotericin B methyl ester and its p-chlorobenzilidine derivative (1.029 g) was dissolved in 40 ml o THF/H2O (4/1) and 0.90 ml of 1.0 M acetic acid solution was added dropwise. Water (40 ml) was added and THF was removed as an azeotrope at reduced pressure and 40° C. The resulting aqueous solution was passed through a column of Amberlite® XAD-2, then freeze-dried to afford 0.654 g of the acetate salt: E^1%1 cm=1100 at 382 nm in MeOH; a 1% solution had pH 5.30.

[2] = at pH levels less than 4.0; cited from earlier work
[3] = solubility in water; type: physicochemical; conditions: freeze-dried yellow powder
Excerpt: In order to facilitate removal of the aldehyde protective group of the Schiff base and to form the salt of the liberated free base ester, the Schiff base is stirred in water overnight, centrifuged and the insoluble product dried by lyophilization. HPLC and 300 Mhz NMR indicate that the product contains some p-chlorobenzaldehyde and is usually about a 50/50 mixture of the desired methyl ester and the corresponding Schiff base. The mixture is stirred in ethyl acetate to remove the excess aldehyde. The product is then dissolved in a solvent which is inert to the materials, is miscible with water, and can be removed from an aqueous solution as an azeotrope. Tetrahydrofuran or acetonitrile fulfil these requirements. […] A solution of amphotericin B methyl ester Schiff base/free base in tetrahydrofuran is diluted with water to approximately 75% THF but maintained in solution. To this solution is added dilute hydrochloric acid until the appropriate pH is reached. This causes the hydrolysis of the Schiff base and forms the hydochloride salt of amphotericin B methyl ester. The tetrahydrofuran is then removed as an azeotrope with water to obtain an aqueous solution of the AME.HCl and some insoluble material containing part of the aldehyde. The residual aldehyde in the aqueous solution of the AME.HCl is an impurity which can not be readily removed by filtration, centrifuging, or solvent extraction. […]

CC(=O)O.COC(=O)C1C(O)CC2(O)CC(O)CC(O)C(O)CCC(O)CC(O)CC(=O)OC(C)C(C)C(O)C(C)C=CC=CC=CC=CC=CC=CC=CC(OC3OC(C)C(O)C(N)C3O)CC1O2 (stereo not drawn) [Amphotericin B Methyl Ester Acetate]
pH of solution [1]: 5.30

COC(=O)[C@H]1[C@@H]2C[C@@H](O[C@@H]3O[C@H](C)[C@@H](O)[C@H](N)[C@@H]3O)/C=C/C=C/C=C/C=C/C=C/C=C/C=C/[C@H](C)[C@@H](O)[C@@H](C)[C@H](C)OC(=O)C[C@H](O)C[C@H](O)CC[C@@H](O)[C@H](O)C[C@H](O)C[C@](O)(C[C@@H]1O)O2 [AME, amphotericin B methyl ester]
stability [2]: very unstable

COC(=O)[C@H]1[C@@H]2C[C@@H](O[C@@H]3O[C@H](C)[C@@H](O)[C@H](N)[C@@H]3O)/C=C/C=C/C=C/C=C/C=C/C=C/C=C/[C@H](C)[C@@H](O)[C@@H](C)[C@H](C)OC(=O)C[C@H](O)C[C@H](O)CC[C@@H](O)[C@H](O)C[C@H](O)C[C@](O)(C[C@@H]1O)O2.Cl [AME.HCl, amphotericin B methyl ester hydrochloride]
solubility in water [3]: highly soluble

Source: patent US6613889B2, “Method for preparing salts of polyene macrolide esters” (BioSource Pharm, Inc., priority 2001, dated 2003)
